Test [1] addresses T1, synthetic Aβ(1-40) (Homo sapiens, UniProt P05067).
T1 construct: particularly the aggregated fibrils of synthetic Aβ(1-40)
Put plainly: Inhibition of Aβ(1-40) beta-pleated sheet formation (thioflavin T fluorescence). The class given is biochemical. Particulars: compound 10 μM; ThT 3 μM in PBS pH 6.0; Aβ(1-40) 3 μg; fluorescence increase over 12-24 hours; read-out: percent inhibition of Aβ(1-40) beta-pleated sheet formation compared to the controls. The method, then:
Thioflavin T (ThT) is known to rapidly associate with beta-pleated sheets, particularly the aggregated fibrils of synthetic Aβ(1-40). This association gives rise to a new excitation maximum at 440 nm and to enhanced emission at 490 nm.
The experiments were performed using a CytoFluor II fluorescence plate reader having the following parameters: […]
Into each well was aliquoted 95 μl of ThT (3 μM) prepared in PBS (pH 6.0), 2 μL of the compound to be tested (10 μM) prepared with 0.05% of methylcellulose in PBS (pH 6.0), and 3 μL of Aβ(1-40) (3 μg) prepared with dH2 O. The fluorescence measurement began when the Aβ(1-40) was added and continued for a total of 12-24 hours. The percent inhibition of beta-pleated sheet formation was calculated from the relative fluorescence unit increase over the 12-24 hours between aggregation in the presence and in the absence of the test compounds.

Test [2] concerns interleukin-1β (IL-1β) release, THP-1 cells. Put plainly: Reduction of LPS and β-amyloid-induced increased release of interleukin-1β in THP-1 cells (ELISA). The class given is cell-based. Particulars: Homo sapiens, 100 μM test compound with LPS and Aβ(25-35), 48 hours, read-out: reduction of β-amyloid-induced increased release of interleukin-1β compared to the controls. The method, then: (§1) THP-1 cells, a human monocyte cell line from American Type Culture Collection, were grown in RPMI-1640 medium plus 10% fetal bovine serum (FBS, not heat-inactivated) in T-flasks. The medium was changed every two days by spinning down (800 rpm, 5 minutes) the cells, replating cells and adding fresh medium. Alternatively, the cultures were maintained by the addition of fresh medium. The cultures were maintained at a cell concentration ranging from between 1×10^5 and 1×10^6 cells/mL. Because sera may contain unknown factors which can affect macrophage/monocyte IL-1 production, the FBS was reduced to 5% for 24 hours. The FBS was further reduced to 2% over two days prior to starting each experiment. The cells were collected by centrifugation and resuspended into 2% FBS. Cell numbers were calculated and cells were plated on 24-well plates (3×10^5 cells/0.6 mL/well). Cells were then treated with LPS (0.5 μg/ml or 0-10 μg/ml for LPS dose-responseexperiments) alone or in combination with Aβ peptides (5 μM or 0.05-5 μM for dose-response experiments). When determining the effect of the test compounds on IL-1β, IL-6 and TNFα release, 100 μM of the test compound was added with the LPS and Aβ(25-35) and this mixture was incubated for 48 hours prior to performing ELISA.
(§2) IL-1β, IL-6 and TNFα secretions into medium by LPS-stimulated THP-1 cells, in the presence or absence of amyloid peptides and a test compound, were assayed with a commercially available ELISA kit (R & D Systems). Briefly, a microtiter plate coated with a murine monoclonal antibody to human IL-1β, IL-6, or TNFα was supplied by the manufacturer. Standards and samples were pipetted into the wells and any IL-1β, IL-6 or TNFα present was bound by the immobilized antibody. Unbound proteins were washed away and a horseradish peroxidase-linked polyclonal antibody specific for IL-1β, IL-6 or TNFα was added to the wells to "sandwich" the IL-1β, IL-6 and TNFα bound in the initial step. After washing to remove any unbound antibody-enzyme reagent, a substrate solution (1:1 hydrogen peroxide:tetramethylbenzidine, v/v) was added to the wells and color developed in proportion to the amount of IL-1β, IL-6 or TNFα bound in the initial step. Color development was stopped with 2 N sulfuric acid and the optical density of the standard and the test samples was measured at 450 nm. The amounts of IL-1β, IL-6 or TNFα present in the samples were calculated based upon a standard curve. Assays were run in quadruplicate wells.

Test [3] has as its system interleukin-6 (IL-6) release, THP-1 cells. The test is described as follows: Reduction of LPS and β-amyloid-induced increased release of interleukin-6 in THP-1 cells (ELISA). In kind it is cell-based. The following applies: Homo sapiens, 100 μM test compound with LPS and Aβ(25-35), 48 hours, read-out: reduction of β-amyloid-induced increased release of interleukin-6 compared to the controls. As to the method: as §1, §2
In general terms: An ELISA detects its analyte on a solid surface through an enzyme-linked reagent.

The test system of test [4] is tumor necrosis factor-α (TNFα) release, THP-1 cells. The test is described as follows: Reduction of LPS and β-amyloid-induced increased release of tumor necrosis factor-α in THP-1 cells (ELISA). Particulars: Homo sapiens, 100 μM test compound with LPS and Aβ(25-35), 48 hours, read-out: reduction of β-amyloid-induced increased release of tumor necrosis factor-α compared to the controls. In kind it is cell-based. As to the method: as §1, §2

Test [5] relates to rat embryonic hippocampal primary neuronal/astrocytic cultures. The test is described as follows: Protection against Aβ(25-35)-induced neuronal cell loss. The class given is cell-based, Sprague Dawley rat. The following applies: Neuron, 100 μM test compound, 30 μM Aβ(25-35), 96 hours treatment, morphologically viable neurons counted, read-out: reduction of Aβ(25-35)-induced neuronal cell loss compared to the controls. As to the method: Sprague Dawley rat hippocampus of 18-day-gestation embryos was excised and then dissociated by trituration to prepare primary neuronal/astrocytic cultures. Cells (3×10^5) were plated on 35 mm poly-D-lysine-coated plates containing Eagle's minimum essential medium supplemented with 10% fetal bovine serum. After 3-5 hours, the original medium was removed and replaced with 1 mL of fresh medium. Cultures were maintained at 37° C. in a 5% CO2 /95% air, humidified incubator.
To the cells (7 DIV) was added 30 μM of Aβ(25-35) dissolved in dH2 O (stored at -20° C.) and 100 μM of the test compound in 1% methylcellulose. Controls were also conducted without the test compound. The percentage of morphologically viable neurons was determined counting the number of viable neurons after 96 hours treatment compared to the number of neurons before treatment in the same premarked culture regions (three regions/culture). The number of wells was n=6 per treatment condition.

In test [6] the test system is rats injected with Aβ(25-35). The test is described as follows: Reduction of locomotor impairment due to Aβ-peptide injected into substantia nigra. The class given is in vivo, Sprague-Dawley rat. The following applies: oral 1-10 mg/kg one hour before and three hours post 20 μg Aβ(25-35) injection; tested one week after treatment. The method, then: Male Sprague-Dawley rats (250-400 g) were given injections of 20 μg of Aβ(25-35) into their substantia nigra. Prior to the injection, the rats were fasted overnight and then each received an oral treatment of the test compound (1-10 mg/kg) dissolved in aqueous 1% methyl cellulose or the vehicle alone, one hour before and three hours post the Aβ-peptide stereotaxic injection. One week after treatment, the rats were dosed s.c. with 0.5 mg/kg apomorphine (dissolved in 0.1% vitamin C in isotonic saline) and the circling reflex was monitored using a Rotorat computerized behavioral monitoring apparatus for the time period between 15 and 30 minutes of being placed in the arena. Impairment of the animals due to Aβ-peptide was determined by measuring the number of rotations over the 15 minute period.

The test system of test [7] is MRL/MpJfas^1pr mutant mice. The test is described as follows: Reduction of cognitive deficits in autoimmune mice (T-maze). The class given is in vivo, mouse. Particulars: Fas^1pr mice; 100 mg/kg p.o. daily from 2 to 4 months of age (9 weeks); versus untreated mutant mice. An excerpt:
MRL/MpJfas^1pr ("mutant mice" or "Fas^1pr ") strains of mice have been described as useful models of Lupus due to their autoimmune lymphoproliferatory pathology. In particular, the mutant mice show a cognitive deficit at approximately four months of age, which is not observed at two months of age. See, for example, Forster et al., 1988, Behav. Neural Biology, 49, 139-151.
In the experiment, wild-type ("++") and Fas^1pr strains of mice were received at 4 to 8 weeks of age (n=10-11). The compound of Example 1 above or 1% methylcellulose (100 mg/kg p.o.) was administered daily from 2 months of age to 4 months of age (a total of 9 weeks). After reaching 4 months of age, the mice were tested for cognitive ability in a T-maze. This behavioral task measures discrimination, active avoidance and acquisition skills (acquisition is the number of avoidances in the first 5 test trials).

Consider four molecules from patent US5994396A, “Furansulfonic acid derivatives and pharmaceutical compositions containing the same” (priority 1998, dated 1999).

Structures are written as SMILES. Structures can show the parent of a compound that is named as a salt.

T1 sequence (P05067 672-711): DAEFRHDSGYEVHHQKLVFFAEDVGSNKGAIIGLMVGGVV

Take `CCCCNC(=O)CCc1ccc(S(=O)(=O)O)o1` [Example 6, 5-[2-(N-n-Butylcarbamoyl)ethyl]-furan-2-sulfonic Acid Sodium Salt]: the inhibition at 10 µM in test [1] is at least 10%. Also, the inhibition at 100 µM in test [2], in test [3] and in test [4] was at least 20% in each case.
`CC(C)NC(=O)c1ccc(S(=O)(=O)O)o1` [Example 2, N-Isopropyl-5-carbamoylfuran-2-sulfonic Acid Sodium Salt]: the inhibition at 10 µM in test [1] is at least 10%. Further, the inhibition at 100 µM was at least 60% in test [5], at least 20% in test [2], at least 20% in test [3] and at least 20% in test [4].
With `CCCCNC(=O)c1ccc(S(=O)(=O)[O-])o1.[Na+]` [Example 1, N-n-Butyl-5-carbamoylfuran-2-sulfonic Acid Sodium Salt], the inhibition at 10 µM in test [1] was at least 10%. Further, the inhibition at 100 µM in test [5] is at least 60%; in test [2], at least 20%; in test [3], at least 20%; in test [4], at least 20%. In addition, the “locomotor impairment (apomorphine-induced rotations over 15 minute period) compared to Aβ(25-35)-treated controls” value in test [6] was “reduced the locomotor impairment”. Moreover, the “acquisition in T-maze (FIG. 1)” value in test [7] is “acquired avoidance skills earlier than untreated mutant mice”. Further, the “avoidance in T-maze (FIG. 2)” value in test [7] is reported as “reduced avoidance values”.
As for `CCCCNC(=O)C=Cc1ccc(S(=O)(=O)O)o1` [Example 5, 5-[2-(N-n-Butylcarbamoyl)eth-1-enyl]-furan-2-sulfonic Acid Sodium Salt], the inhibition at 100 µM is at least 60% in test [5], at least 20% in test [2], at least 20% in test [3] and at least 20% in test [4].
